{
  "source": "patent US8207188B2",
  "about": "“Treatment of diseases modulated by a H4 receptor agonist” (priority 2006, dated 2012)",
  "key": {"[1]": {"tested_on": "human TF1 cells that express H4R", "assay": "TF1 cell proliferation assay (GM-CSF promoted)", "assay_type": "cell-based", "conditions": "Homo sapiens, TF-1, 72 h; 10 μM, 3 days, three separate assays (n=3)", "protocol": "Tritoqualine was tested on a cell proliferation assay using human TF1 cells that express H4R.\nTF1 cell proliferation is promoted using granulocyte/macrophage colony-stimulating factor (GM-CSF). In this cell proliferation model H4R agonists inhibit cell proliferation. Clobenpropit (CB), a known H4R agonist at a dose of 10^−5M (10 μM) was used as a known cell proliferation inhibition control. […] Each experiment used 100,000 TF1 cells/mL incubated for three days with GM-CSF (10 ng/mL). After addition of TRQ in the range of 10^−5M (10 μM) to 10^−7 M (0.1 μM), and incubation for 3 days, cell proliferation was assessed and compared to that of 10 μM CB."}, "[2]": {"tested_on": "Mouse medullary cells C57B1/6 expressing H4R", "assay": "Percentage of cells at G0/G1 phase, TRQ racemate and enantiomers with and without CB (Example 21)", "assay_type": "cell-based", "conditions": "10 μM, compared to control (GF only)", "protocol": "This experiment was conducted at two concentrations for all TRQ molecules (10 μM and 1 μM) in the presence and absence of CB (10 μM).\nUsing the assay described in Example 15, above, the effect of TRQ or CB on cells expressing H4R was tested. Mouse medullary cells C57B1/6 expressing H4R (50,000 cells/Petri dish) were incubated in a semi-solid media with haematopoietic growth factors such as IL-3 (10 ng/ml) for 7 days with a TRQ (racemic mixture of RR and SS isomers at 1 μM and 10 μM concentration); purified TRQ isomer E1 (10 μM and 1 μM concentration); purified TRQ isomer E2 (10 μM and 1 μM concentration) and CB (10 μM concentration). […] Similar results were shown with the purified TRQ isomers. In each experiment cells were incubated in the presence of growth factors (GF, FIG. 15)."}, "[3]": {"tested_on": "ckit positive hematopoietic progenitor cells", "assay": "ckit receptor expression on hematopoietic progenitor cells", "assay_type": "cell-based", "conditions": "10 μM", "from_the_text": "In FIG. 16 the reference to CB-5, E1-5, and E2-5 is the same as above. CKit is a receptor on the surface of hematopoetic cells. Quantifying the ckit receptor is a measure of the differentiation from the progenitor state to the hematopoetic cell state."}, "[4]": {"tested_on": "Mouse medullary cells C57B1/6 expressing H4R", "assay": "Proliferation of Colony Forming Cells (CFC) in semi-solid media", "assay_type": "cell-based", "conditions": "10 μM, 7 days", "protocol": "Using the assay described in Example 15, above, the effect of TRQ or CB on cells expressing H4R was tested. Mouse medullary cells C57B1/6 expressing H4R (50,000 cells/Petri dish) were incubated in a semi-solid media with haematopoietic growth factors (IL-3: 10 ng/ml) for 7 days with TRQ or CB.\nUsing the assay described in Example 15, above, the effect of TRQ or CB on cells expressing H4R was tested. Mouse medullary cells C57B1/6 expressing H4R (50,000 cells/Petri dish) were incubated in a semi-solid media with haematopoietic growth factors (IL-3: 10 ng/ml) for 7 days with a TRQ (racemic mixture of RR and SS isomers at 1 μM and 10 μM concentration); TRQ isomer E1 (10 μM concentration); TRQ isomer E2 (10 μM concentration) and CB (10 μM concentration)."}, "H4R": {"biological_target": "T1, H4R (Mus musculus, UniProt Q91ZY2)", "T1 construct": "endogenous in cells; host or cells: freshly sorted c-kit+ haematopoietic progenitor cells", "T1 sequence (Q91ZY2 1-391)": "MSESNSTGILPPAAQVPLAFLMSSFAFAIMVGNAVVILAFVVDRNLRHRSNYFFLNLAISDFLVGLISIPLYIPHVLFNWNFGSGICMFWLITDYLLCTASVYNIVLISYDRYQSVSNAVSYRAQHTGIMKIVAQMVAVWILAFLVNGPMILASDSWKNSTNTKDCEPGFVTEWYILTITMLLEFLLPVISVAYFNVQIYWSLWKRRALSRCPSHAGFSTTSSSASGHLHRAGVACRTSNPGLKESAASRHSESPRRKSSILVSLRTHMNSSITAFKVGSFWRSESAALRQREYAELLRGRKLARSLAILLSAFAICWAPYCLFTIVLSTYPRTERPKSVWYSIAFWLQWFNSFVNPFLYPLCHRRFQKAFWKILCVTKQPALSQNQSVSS", "assay": "Cell cycle status after H4R silencing with siRNA", "assay_type": "cell-based", "conditions": "10 μM; H4R siRNA transfected c-kit+ cells", "protocol": "H4R silencing was performed with freshly sorted c-kit^+ cells. For transfection, 3 μl of HiPerFect reagent (Qiagen; Courtaboeuf, France) and 4 μl ([…]) of human and 8 μl (80 pmol) of murine H4R siRNA, scrambled FITC-labeled or unconjugated control siRNAs (all from Santa Cruz Biotechnology) were incubated in 50 μl x-vivo medium (Cambrex; East Rutherford, N.J.) for 20 min at room temperature. The mixture was then added to 50 μl of cell suspension at a final concentration of 10^6 cells/ml and incubated for 20 h, when transfection efficiency was verified with scrambled FITC-conjugated siRNA. Cells were then centrifuged and resuspended at a concentration of 10^5 cells/ml in StemSpan medium with growth factor cocktail. The extinction of H4R protein expression was ascertained by FACS analysis after 24 h. After 3 days of culture with or without tritoqualine (10 μM) or Clobenpropit (10 μM) cells were counted and their viability was assessed by trypan blue exclusion. The cell cycle status was assessed after an overnight incubation."}, "[5]": {"tested_on": "hematopoietic progenitor cells", "assay": "CFU of hematopoietic progenitor cells in the presence of Ara-C", "assay_type": "cell-based", "from_the_text": "Ara-C is a chemotherapeutic agent that kills cancel cells (or actively dividing cells)."}, "[6]": {"assay": "Reintroduction of causal food allergen in food allergy patients", "assay_type": "in vivo, human", "conditions": "baseline patients treated with one drug alone", "from_the_text": "Allergens tested came from either […], or ALLERBIO.\nThe direct test with the Nutella® was strongly positive for allergy. This patient was hospitalized in two occasions for the same dramatic allergic reaction to Nutella® spread. Furthermore, the patient presented allergies to pneumoallergens.\nContinuation of the above treatment for over 8 months afforded reversal of allergic and digestive symptoms due to food allergy.\nThe patient under study had survived two cases of anaphylactic shock due to ingestion of shrimps. […] Later the patient was able to ingest five shrimps without any local signs and no global reaction.\nBaseline patients had signs of food allergies and the food allergy symptoms were not adequately managed with an H1 antagonist and cromoglycate. A group of 15 patients presenting signs of food allergies is tested with allergens such as the following: peanut, milk, tomato, potato, flour of wheat, soybean, fish, and shrimp. Allergens tested came from either […], or ALLERBIO.\nAll patients had history of hospitalization and reactions such as Quincke's edema and asthma crisis. Most of the causal allergens were peanut (six patients), egg (four patients) and soybean (five patients) of them (with other several positive food allergens at different degrees of reaction). […]"}},
  "note": "Entries after “also recorded” stand apart in the source; their conditions may differ.",
  "data": [
    {"compound": "NC(=NCc1ccc(Cl)cc1)SCCCc1cnc[nH]1", "note": "[CB, N′-[(4-chlorophenyl)methyl]-1-[3-(3H-imidazol-4-yl)propylthio]formamidine]", "values": [
      {"measurement": "inhibition at 10 µM", "setting": "[1]", "result": 23, "unit": "%"},
      {"measurement": "percentage of cells at the G0/G1 phase / inhibitory activity of cell proliferation", "setting": "[2]", "result": "increases the percentage of cells at the G0/G1 phase; also recorded: slightly better inhibitory activity of cell proliferation compared to that of Racemic TRQ"},
      {"measurement": "ckit expression", "setting": "[3]", "result": "inhibits of ckit expression"},
      {"measurement": "inhibition of proliferation of CFC", "setting": "[4]; Example 16, IL-3 10 ng/ml", "result": "inhibits the proliferation of CFC"},
      {"measurement": "inhibitory activity of cell proliferation (CFC)", "setting": "[4]; Example 20", "result": "inhibits the proliferation of CFC"},
      {"measurement": "activity inhibiting the cell cycle at the G0/G1 phase after H4R siRNA", "setting": "H4R", "result": "reversed"},
      {"measurement": "protection of cells / cell CFU in the presence of Ara-C", "setting": "[5]", "result": "provides protection to the cells"}
    ]},
    {"compound": "CC(C)(O)c1ccccc1CC[C@@H](SCC1(CC(=O)O)CC1)c1cccc(/C=C/c2ccc3ccc(Cl)cc3n2)c1", "note": "[Montelukast®]", "values": [
      {"measurement": "management of food allergy symptoms with the single drug", "setting": "[6]", "result": "did not yield satisfactory management"}
    ]}
  ]
}
